In publication PMC3502291, “Identification of Small Molecule Inhibitors of PTPσ through an Integrative Virtual and Biochemical Approach” (PLoS ONE, 2012):
One block for each compound: values may come before it.

Key:
Type in all cases: biochemical
[1] = target: T1, PTPσ (Homo sapiens, UniProt Q13332); assay: Km from initial velocities of dephosphorylation ([…] nm absorbance)
T1 construct: gene PTPRS; GST-tagged recombinant PTPσ, all residues C-terminal to the transmembrane domain (BC104812 cDNA; aa 883-1501)
T1 sequence (Q13332 1330-1948): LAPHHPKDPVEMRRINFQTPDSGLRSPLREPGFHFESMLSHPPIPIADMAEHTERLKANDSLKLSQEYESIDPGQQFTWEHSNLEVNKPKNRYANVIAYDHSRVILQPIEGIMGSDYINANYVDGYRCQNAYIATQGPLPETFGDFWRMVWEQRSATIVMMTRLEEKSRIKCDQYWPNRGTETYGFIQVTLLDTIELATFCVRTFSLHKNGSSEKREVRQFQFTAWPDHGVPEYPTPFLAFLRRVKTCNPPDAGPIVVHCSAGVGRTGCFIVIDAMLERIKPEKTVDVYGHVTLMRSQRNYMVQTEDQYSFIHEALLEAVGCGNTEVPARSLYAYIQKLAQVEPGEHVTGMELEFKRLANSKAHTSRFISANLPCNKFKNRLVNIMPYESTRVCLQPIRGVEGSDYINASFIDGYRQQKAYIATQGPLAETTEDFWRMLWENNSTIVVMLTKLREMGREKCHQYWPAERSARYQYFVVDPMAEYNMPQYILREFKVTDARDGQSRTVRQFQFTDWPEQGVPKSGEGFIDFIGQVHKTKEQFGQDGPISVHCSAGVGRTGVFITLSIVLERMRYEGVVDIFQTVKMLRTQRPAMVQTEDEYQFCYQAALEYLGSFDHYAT

[2] = target: T1, PTPσ; assay: pNPP phosphatase assay with purified GST-PTPσ, positive control
[3] = target: T1, PTPσ; assay: pNPP phosphatase assay with purified GST-PTPσ, dose-response, with and without catalase

Compound: para-nitrophenyl phosphate [pNPP]
Km [1]: 250 µM

Compound: [O]=[V]([OH])([OH])[OH] [Na3VO4, sodium orthovanadate]
pNPP phosphatase assay with purified GST-PTPσ, positive control [2]: Sodium orthovanadate (Na3VO4) is a pan inhibitor of PTPs and was included as a positive control

IC50 [3]: 10 µM
Compound: O=C(C=CNc1cc([N+](=O)[O-])ccc1O)c1ccc(Cl)c(Cl)c1 [compound 36, 1-(3,4-dichlorophenyl)-3-[(2-hydroxy-5-nitrophenyl)amino]-2-propen-1-one]
